Test results taken from publication PMC7408396, “IPEC-J2 rMdr1a, a New Cell Line with Functional Expression of Rat P-glycoprotein Encoded by Rat Mdr1a for Drug Screening Purposes” (Pharmaceutics, 2020).
Values belong to the molecule of their own block, whether it stands above or below them.

Columns and labels:
human P-gp [1] = target: T1, human P-gp (Homo sapiens, UniProt P08183); parameters: expressed in transfected cells; host or cells: IPEC-J2 (porcine intestinal epithelial cells), previously established IPEC-J2 MDR1 line; method as in PMID 27194478; details: MDCK II MDR1 cell monolayers; cited from earlier work
T1 sequence (P08183 whole entry): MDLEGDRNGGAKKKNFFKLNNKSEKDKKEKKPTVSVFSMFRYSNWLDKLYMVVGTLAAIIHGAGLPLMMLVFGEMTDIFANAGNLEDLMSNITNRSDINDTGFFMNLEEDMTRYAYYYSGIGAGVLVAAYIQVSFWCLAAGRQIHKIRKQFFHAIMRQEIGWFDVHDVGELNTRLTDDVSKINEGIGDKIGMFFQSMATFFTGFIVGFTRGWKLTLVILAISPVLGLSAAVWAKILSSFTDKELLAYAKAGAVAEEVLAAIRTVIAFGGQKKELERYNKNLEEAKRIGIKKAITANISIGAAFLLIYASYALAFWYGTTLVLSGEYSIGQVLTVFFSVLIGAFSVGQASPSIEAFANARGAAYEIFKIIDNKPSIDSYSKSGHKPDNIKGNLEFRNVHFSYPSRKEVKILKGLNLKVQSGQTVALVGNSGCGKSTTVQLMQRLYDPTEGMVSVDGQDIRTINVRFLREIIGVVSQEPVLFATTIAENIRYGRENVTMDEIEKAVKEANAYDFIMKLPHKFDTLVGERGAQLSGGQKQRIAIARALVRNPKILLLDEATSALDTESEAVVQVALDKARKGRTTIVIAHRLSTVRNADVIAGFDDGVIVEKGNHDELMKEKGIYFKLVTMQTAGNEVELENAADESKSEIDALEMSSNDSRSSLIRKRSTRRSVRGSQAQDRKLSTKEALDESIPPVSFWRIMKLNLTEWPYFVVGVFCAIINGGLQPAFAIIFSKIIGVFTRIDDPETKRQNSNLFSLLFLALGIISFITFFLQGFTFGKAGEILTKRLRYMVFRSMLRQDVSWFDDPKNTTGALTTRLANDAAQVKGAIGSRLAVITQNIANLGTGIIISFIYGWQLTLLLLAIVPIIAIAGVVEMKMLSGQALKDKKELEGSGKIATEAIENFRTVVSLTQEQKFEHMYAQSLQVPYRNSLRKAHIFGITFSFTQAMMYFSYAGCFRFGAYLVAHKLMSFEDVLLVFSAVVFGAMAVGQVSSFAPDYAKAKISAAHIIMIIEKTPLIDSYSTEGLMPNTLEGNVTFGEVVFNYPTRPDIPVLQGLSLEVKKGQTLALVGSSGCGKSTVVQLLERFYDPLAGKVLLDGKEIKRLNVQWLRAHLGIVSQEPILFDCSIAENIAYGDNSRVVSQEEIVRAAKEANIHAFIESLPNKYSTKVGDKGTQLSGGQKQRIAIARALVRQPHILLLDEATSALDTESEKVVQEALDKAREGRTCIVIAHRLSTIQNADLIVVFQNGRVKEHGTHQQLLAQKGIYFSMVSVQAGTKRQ

[2] = parameters: method as in PMID 27194478; details: murine / rodent animal models; cited from earlier work
human P-gp [3] = target: T1, human P-gp; details: IPEC-J2 MDR1 cells overexpressing human P-gp; cited from earlier work
P-gp (rat Mdr1a) = experiment: in vitro; details: for efflux ratio at 120 min: pH 7.4, efflux ratio, Figure 5 comparison series
[4] = Bidirectional transport across IPEC-J2 wild-type (WT) cell monolayers; format: in vitro ADME, porcine; details: pig, pH 7.4, mean ± SEM
Description: (§1) The cell monolayers were washed and pre-incubated in transport buffer consisting of 10 mM HEPES, 0.05% BSA and 0.038% sodium bicarbonate in HBSS pH 7.4 for 15 min at 37 °C on a shaking table (Unimax 2010, Heidolph, Schwabach, Germany) with a rotation of 75–90 rpm. The buffer was removed, and the transport experiments were initiated by the addition of donor solution containing radio-labelled compound in transport buffer in a concentration of 0.5 or 1 μ Ci/mL to either the apical or the basolateral chamber. […] Receiver samples were collected after 15, 30, 45, 60, 90 and 120 min from the basolateral (100 µL) or the apical chamber (50 µL), respectively.
(§2) Based on data from transport experiments, the apparent permeability coefficients (Papp) were calculated using Equation (1):(1) Papp = J/C0 = Qt/C0At where J denotes the steady-state flux (nmol·cm^−2·min^−1), C0 is the initial concentration in the donor compartment, A is the cross-sectional area of the permeable inserts (1.13 cm^2) and Qt represents the accumulated amount of drug in the receiver compartment at time t in minutes (corrected for the dilution arising from replacement of the sampled volume with blank transport buffer).

P-gp (human MDR1) = target: T2, P-gp (human MDR1) (Homo sapiens, UniProt P08183); experiment: Bidirectional transport across IPEC-J2 MDR1 cell monolayers; format: in vitro ADME; details: for Papp A→B at 120 min / Papp B→A at 120 min: pH 7.4, Figure 5, mean ± SEM; for Papp A→B at 120 min: read-out: apparent permeability A–B; for Papp B→A at 120 min: read-out: apparent permeability B–A; for efflux ratio at 120 min: pH 7.4, Figure 5 comparison series
T2 construct: expressed in transfected cells; host or cells: IPEC-J2 (porcine intestinal epithelial cells), previously established IPEC-J2 MDR1 line
T2 sequence (P08183 whole entry): as above
Description: as §1, §2

human P-gp [5] = target: T1, human P-gp; parameters: expressed in transfected cells; method as in PMID 17045309; details: cell monolayers overexpressing human P-gp; cited from earlier work
mouse Mdr1a = tested on: mouse Mdr1a; parameters: method as in PMID 17045309; details: mouse Mdr1a-transfected LLC-PK1 and MDCK monolayers; cited from earlier work
[6] = tested on: P-gp (rat Mdr1a and human MDR1); experiment: in vitro; details: human, pH 7.4, apparent permeability values (span over both directions), A–B and B–A, across both IPEC-J2 rMdr1a and IPEC-J2 MDR1 monolayers
rMDR1a-transfected cells = experiment: Puromycin selection of rMdr1a-transfected IPEC-J2 cells; format: cell-based, porcine; details: 2 μg/mL puromycin
Description: (§3) The rat Mdr1a cDNA, codon-optimized for expression in Sus scrofa, was synthesized by Geneart (Regensburg, Germany) and inserted in the pcDNA3.1 (+) cloning vector under control of a cytomegalovirus (CMV) promoter (see Supplemental Figure S1) and purchased from Geneart (Regensburg, Germany). […] Cells were seeded on permeable Transwell® inserts (1.13 cm^2 surface area, 0.4 µm pore size) at a density of 4 × 10^4 cells/insert and cultured for 15–18 days (with culture medium change three times per week) prior to experimentation.

IPEC-J2 mock cells [7] = experiment: Puromycin selection of IPEC-J2 mock cells; format: cell-based, porcine; details: 2 μg/mL puromycin
Description: as §3

rat Mdr1a = tested on: rat Mdr1a; parameters: method as in PMID 16779700; details: LLC-PK1 cells transfected with rat Mdr1a; cited from earlier work
rat Mdr1a P-gp = details: IPEC-J2 rMdr1a monolayers
human MDR1 = tested on: human MDR1; parameters: method as in PMID 16779700; details: LLC-PK1 cells transfected with human MDR1; cited from earlier work
IPEC-J2 mock cells [8] = experiment: Bidirectional transport across IPEC-J2 mock cell monolayers (empty pcDNA 3.1(+) vector); details: 0.4 µM zosuquidar, Supplemental Figure S2
[9] = pH 7.4, apparent permeability A–B, IPEC-J2 rMdr1a monolayers, Figure 5, mean ± SEM

Structure (SMILES): CNCC[C@@H](Oc1ccccc1C)c1ccccc1 [atomoxetine]
- efflux ratio (ER) (human P-gp [1]): > 3
- Kp,uu (unbound drug concentration in CNS relative to plasma) [2]: > 2

Structure (SMILES): CN(C)CCCC1(c2ccc(F)cc2)OCc2cc(C#N)ccc21 (stereo not shown) [citalopram]
- P-gp substrate identification (human P-gp [3]): P-gp substrates

- Papp at 120 min (P-gp (rat Mdr1a); pH 7.4, PB-A (apparent permeability in the efflux direction), late passages (14–16)): 16 ± 1 ×10⁻⁶ cm/s
- Papp A→B at 120 min (P-gp (rat Mdr1a); [9]): 0.35 ± 0.03 ×10⁻⁶ cm/s
- Papp A→B at 120 min (P-gp (rat Mdr1a); pH 7.4, permeability in the A–B direction, early passages (5–7)): 0.37 ± 0.1 ×10⁻⁶ cm/s
- Papp A→B at 120 min (P-gp (rat Mdr1a); pH 7.4, permeability in the A–B direction, late passages (14–16)): 0.68 ± 0.62 ×10⁻⁶ cm/s
- Papp A→B at 120 min ([4]; read-out: PA-B (apparent permeability, apical to basolateral)): 0.05 ± 0.05 ×10⁻⁶ cm/s
- Papp B→A at 120 min ([4]; read-out: PB-A (apparent permeability, basolateral to apical)): 0.13 ± 0.17 ×10⁻⁶ cm/s
- Papp A→B at 120 min (P-gp (human MDR1)): 0.28 ± 0.03 ×10⁻⁶ cm/s
Structure (SMILES): C[C@H]1O[C@@H](O[C@H]2[C@@H](O)C[C@H](O[C@H]3[C@@H](O)C[C@H](O[C@H]4CC[C@@]5(C)[C@H](CC[C@@H]6[C@@H]5C[C@@H](O)[C@]5(C)[C@@H](C7=CC(=O)OC7)CC[C@]65O)C4)O[C@@H]3C)O[C@@H]2C)C[C@H](O)[C@@H]1O [digoxin]

Structure (SMILES): CC[C@@H](C(N)=O)N1CCCC1=O [levetiracetam]
- polarized transport (human P-gp [5]): no polarized transport could be observed
- polarized transport (mouse Mdr1a): showed polarized transport

- Papp at 120 min [6]: 0.25 to 0.44 ×10⁻⁶ cm/s
- Papp B→A at 120 min (P-gp (rat Mdr1a); pH 7.4): 0.44 ± 0.11 ×10⁻⁶ cm/s
- Papp A→B at 120 min (P-gp (rat Mdr1a); [9]): 0.33 ± 0.12 ×10⁻⁶ cm/s
- efflux ratio at 120 min (P-gp (rat Mdr1a); IPEC-J2 rMdr1a monolayers): 1.5
- Papp at 120 min (P-gp (rat Mdr1a); pH 7.4, paracellular permeability, IPEC-J2 rMdr1a monolayers, conclusion summary): ~0.3 ×10⁻⁶ cm/s
- Papp A→B at 120 min (P-gp (human MDR1)): 0.25 ± 0.02 ×10⁻⁶ cm/s
- Papp B→A at 120 min (P-gp (human MDR1)): 0.37 ± 0.04 ×10⁻⁶ cm/s
- efflux ratio at 120 min (P-gp (human MDR1)): 1.4
Structure (SMILES): OC[C@@H](O)[C@@H](O)[C@H](O)[C@H](O)CO [mannitol]

Structure (SMILES): Cc1cc2c(s1)Nc1ccccc1N=C2N1CCN(C)CC1 [olanzapine]
- Papp A→B at 120 min (P-gp (rat Mdr1a); pH 7.4): 24 ± 3 ×10⁻⁶ cm/s
- Papp B→A at 120 min (P-gp (rat Mdr1a); pH 7.4): 44 ± 3 ×10⁻⁶ cm/s
- Papp A→B at 120 min (P-gp (human MDR1)): 23 ± 4 ×10⁻⁶ cm/s
- Papp B→A at 120 min (P-gp (human MDR1)): 40 ± 3 ×10⁻⁶ cm/s

Structure (SMILES): OCCN1CCN(CCCN2c3ccccc3Sc3ccc(Cl)cc32)CC1 [perphenazine]
- efflux ratio (ER) (human P-gp [1]): > 3
- Kp,uu (unbound drug concentration in CNS relative to plasma) [2]: > 2

Structure (SMILES): O=C1NC(=O)C(c2ccccc2)(c2ccccc2)N1 [phenytoin]
- polarized transport (human P-gp [5]): no polarized transport could be observed
- polarized transport (mouse Mdr1a): showed polarized transport

Structure (SMILES): COc1ccc(C[C@H](N)C(=O)N[C@H]2[C@@H](O)[C@H](n3cnc4c(N(C)C)ncnc43)O[C@@H]2CO)cc1 [puromycin]
- cell survival under selection (rMDR1a-transfected cells): survived the treatment
- cell survival under selection (IPEC-J2 mock cells [7]): died within three days

Structure (SMILES): CN1CCN(CCCN2c3ccccc3Sc3ccc(C(F)(F)F)cc32)CC1 [trifluoperazine]
- efflux ratio (ER) (human P-gp [1]): > 3
- Kp,uu (unbound drug concentration in CNS relative to plasma) [2]: > 2

- Papp B→A at 120 min (P-gp (rat Mdr1a); pH 7.4): 20 ± 5 ×10⁻⁶ cm/s
- Papp A→B at 120 min (P-gp (rat Mdr1a); [9]): 1.6 ± 0.2 ×10⁻⁶ cm/s
- efflux ratio at 120 min (P-gp (rat Mdr1a); IPEC-J2 rMdr1a monolayers): 12.8
- efflux ratio (rat Mdr1a P-gp; Figure 5 comparison series): 13
- Papp A→B at 120 min (P-gp (human MDR1)): 1.5 ± 0.2 ×10⁻⁶ cm/s
- Papp B→A at 120 min (P-gp (human MDR1)): 19 ± 6 ×10⁻⁶ cm/s
- efflux ratio at 120 min (P-gp (human MDR1)): 12.4
Structure (SMILES): CC[C@]1(O)C[C@@H]2CN(CCc3c([nH]c4ccccc34)[C@@](C(=O)OC)(c3cc4c(cc3OC)N(C)[C@H]3[C@@](O)(C(=O)OC)[C@H](OC(C)=O)[C@]5(CC)C=CCN6CC[C@]43[C@@H]65)C2)C1 [vinblastine]
- efflux ratio (rat Mdr1a): 18.4
- efflux ratio (human MDR1): 12.5

Structure (SMILES): O[C@@H](COc1cccc2ncccc12)CN1CCN([C@@H]2c3ccccc3[C@@H]3[C@H](c4ccccc42)C3(F)F)CC1 [zosuquidar]
- effect on efflux transport of digoxin (rat Mdr1a P-gp; 0.4 µM zosuquidar): completely blocked
- effect on digoxin transport (IPEC-J2 mock cells [8]): did not affect digoxin transport
